Data as given in BigSolDB 2.1.

Cc1ccccc1S(N)(=O)=O
Conditions | solubility (mole fraction)
in acetone, 273.15 K | 0.0728
in acetone, 279.15 K | 0.0787
in acetone, 283.75 K | 0.0844
in acetone, 289.15 K | 0.091
in acetone, 298.95 K | 0.105
in acetone, 303.25 K | 0.113
in acetone, 308.65 K | 0.124
in acetone, 313.15 K | 0.134
in acetone, 318.15 K | 0.146
in acetone, 323.15 K | 0.158
in acetonitrile, 273.15 K | 0.0167
in acetonitrile, 279.15 K | 0.0196
in acetonitrile, 283.95 K | 0.022
in acetonitrile, 293.35 K | 0.0297
in acetonitrile, 298.95 K | 0.0347
in acetonitrile, 303.25 K | 0.0401
in acetonitrile, 308.95 K | 0.0476
in acetonitrile, 313.15 K | 0.0533
in acetonitrile, 319.15 K | 0.0634
in acetonitrile, 323.85 K | 0.0723
in cyclohexanone, 273.15 K | 0.0803
in cyclohexanone, 279.15 K | 0.0861
in cyclohexanone, 283.95 K | 0.0927
in cyclohexanone, 289.15 K | 0.0992
in cyclohexanone, 293.35 K | 0.105
in cyclohexanone, 298.95 K | 0.114
in cyclohexanone, 303.25 K | 0.122
in cyclohexanone, 308.95 K | 0.133
in cyclohexanone, 313.15 K | 0.143
in cyclohexanone, 319.15 K | 0.156
in cyclohexanone, 323.85 K | 0.168
in cyclopentanone, 273.15 K | 0.098
in cyclopentanone, 279.15 K | 0.104
in cyclopentanone, 283.95 K | 0.111
in cyclopentanone, 289.15 K | 0.118
in cyclopentanone, 293.35 K | 0.124
in cyclopentanone, 298.95 K | 0.133
in cyclopentanone, 303.25 K | 0.142
in cyclopentanone, 308.95 K | 0.152
in cyclopentanone, 313.15 K | 0.16
in cyclopentanone, 319.15 K | 0.175
in cyclopentanone, 323.85 K | 0.187
in dichloromethane, 273.15 K | 0.00161
in dichloromethane, 279.15 K | 0.00199
in dichloromethane, 283.95 K | 0.00233
in dichloromethane, 289.15 K | 0.00304
in dichloromethane, 293.35 K | 0.00365
in dichloromethane, 298.95 K | 0.00463
in dichloromethane, 303.25 K | 0.00547
in dichloromethane, 308.95 K | 0.00697
in dichloromethane, 312.15 K | 0.00785
in ethanol, 273.15 K | 0.00764
in ethanol, 279.15 K | 0.00971
in ethanol, 283.75 K | 0.0116
in ethanol, 289.15 K | 0.0147
in ethanol, 298.95 K | 0.0196
in ethanol, 303.25 K | 0.0226
in ethanol, 308.65 K | 0.0275
in ethanol, 313.15 K | 0.0315
in ethanol, 318.15 K | 0.0374
in ethanol, 323.15 K | 0.0439
in ethyl acetate, 273.15 K | 0.0221
in ethyl acetate, 279.15 K | 0.0248
in ethyl acetate, 283.75 K | 0.0278
in ethyl acetate, 289.15 K | 0.0307
in ethyl acetate, 298.95 K | 0.0377
in ethyl acetate, 303.25 K | 0.0416
in ethyl acetate, 308.65 K | 0.0471
in ethyl acetate, 313.15 K | 0.0518
in ethyl acetate, 318.15 K | 0.0578
in ethyl acetate, 323.15 K | 0.0643
in ethyl formate, 273.15 K | 0.013
in ethyl formate, 279.15 K | 0.0146
in ethyl formate, 283.95 K | 0.0165
in ethyl formate, 289.15 K | 0.0185
in ethyl formate, 293.35 K | 0.0207
in ethyl formate, 298.95 K | 0.0239
in ethyl formate, 303.25 K | 0.0273
in ethyl formate, 308.95 K | 0.0316
in ethyl formate, 313.15 K | 0.0354
in ethyl formate, 319.15 K | 0.0408
in ethyl formate, 323.85 K | 0.0461
in isobutanol, 273.15 K | 0.00205
in isobutanol, 279.15 K | 0.00284
in isobutanol, 283.75 K | 0.00363
in isobutanol, 289.15 K | 0.00476
in isobutanol, 298.95 K | 0.00768
in isobutanol, 303.25 K | 0.00934
in isobutanol, 308.65 K | 0.012
in isobutanol, 313.15 K | 0.0144
in isobutanol, 318.15 K | 0.0178
in isobutanol, 323.15 K | 0.0215
in isopentanol, 273.15 K | 0.00248
in isopentanol, 279.15 K | 0.00333
in isopentanol, 283.95 K | 0.00419
in isopentanol, 289.15 K | 0.00534
in isopentanol, 293.35 K | 0.00642
in isopentanol, 298.95 K | 0.00805
in isopentanol, 303.25 K | 0.00978
in isopentanol, 308.95 K | 0.0125
in isopentanol, 313.15 K | 0.0144
in isopentanol, 319.15 K | 0.0183
in isopentanol, 323.85 K | 0.0214
in isopropanol, 273.15 K | 0.00343
in isopropanol, 279.15 K | 0.00464
in isopropanol, 283.75 K | 0.00581
in isopropanol, 289.15 K | 0.00756
in isopropanol, 298.95 K | 0.0115
in isopropanol, 303.25 K | 0.0137
in isopropanol, 308.65 K | 0.0175
in isopropanol, 313.15 K | 0.0208
in isopropanol, 318.15 K | 0.0252
in isopropanol, 323.15 K | 0.0304
in methanol, 273.15 K | 0.0128
in methanol, 279.15 K | 0.016
in methanol, 283.75 K | 0.0189
in methanol, 289.15 K | 0.0233
in methanol, 298.95 K | 0.0311
in methanol, 303.25 K | 0.0355
in methanol, 308.65 K | 0.0422
in methanol, 313.15 K | 0.0489
in methanol, 318.15 K | 0.0567
in methanol, 323.15 K | 0.0658
in methyl acetate, 273.15 K | 0.027
in methyl acetate, 279.15 K | 0.0303
in methyl acetate, 283.95 K | 0.0337
in methyl acetate, 289.15 K | 0.0374
in methyl acetate, 293.35 K | 0.0405
in methyl acetate, 298.95 K | 0.046
in methyl acetate, 303.25 K | 0.0513
in methyl acetate, 308.95 K | 0.058
in methyl acetate, 313.15 K | 0.0637
in methyl acetate, 319.15 K | 0.0731
in methyl acetate, 323.85 K | 0.0809
in n-butanol, 273.15 K | 0.00341
in n-butanol, 279.15 K | 0.00451
in n-butanol, 283.75 K | 0.00556
in n-butanol, 289.15 K | 0.00731
in n-butanol, 298.95 K | 0.0104
in n-butanol, 303.25 K | 0.0123
in n-butanol, 308.65 K | 0.0154
in n-butanol, 313.15 K | 0.0181
in n-butanol, 318.15 K | 0.0218
in n-butanol, 323.15 K | 0.0262
in n-pentanol, 273.15 K | 0.0027
in n-pentanol, 279.15 K | 0.00363
in n-pentanol, 283.95 K | 0.00456
in n-pentanol, 289.15 K | 0.00568
in n-pentanol, 293.35 K | 0.00705
in n-pentanol, 298.95 K | 0.00875
in n-pentanol, 303.25 K | 0.0108
in n-pentanol, 308.95 K | 0.0134
in n-pentanol, 313.15 K | 0.0158
in n-pentanol, 319.15 K | 0.0195
in n-pentanol, 323.85 K | 0.023
in n-propanol, 273.15 K | 0.00418
in n-propanol, 279.15 K | 0.0055
in n-propanol, 283.75 K | 0.00674
in n-propanol, 289.15 K | 0.00847
in n-propanol, 298.95 K | 0.0126
in n-propanol, 303.25 K | 0.0148
in n-propanol, 308.65 K | 0.0182
in n-propanol, 313.15 K | 0.0215
in n-propanol, 318.15 K | 0.0257
in n-propanol, 323.15 K | 0.03
